Legend:
[1] = test system: PLP induced remitting-relapsing EAE; experiment: PLP induced remitting-relapsing EAE
[2] = target: CB2 receptor (Homo sapiens, UniProt P34972); experiment: CB2 binding assay
[3] = test system: inflammatory pain; experiment: Inflammatory pain and paw edema, λ carrageenan; assay type: in vivo, Sprague Dawley rats; conditions: for ΔLT between hind paws, thermal stimulus: 3 hours; for reduction of delta force between paws, tactile stimulus: vehicle 31 g
Protocol: Male Sprague Dawley rats (average body weight 200 g, Harlan, Israel) were transiently sedated by placement on dry ice for the duration of the injections. Rats were injected subcutaneously, in the subplantar region of one (right) paw with 0.1 ml of 2% w/v λ Carrageenan in sterile saline. […] Test compounds were administered p.o. by oral gavage immediately after the carrageenan injection as pretreatment. Vehicle (PB) treated animals were used as controls. Before induction of inflammatory pain and three hours after injection, the animals reactions to pain stimuli were tested in two systems. The first stimulus was thermal and assessed by the Plantar Test according to Hargreaves, using Ugo Basile Model 7370. The scale was set to an intensity of 50 arbitrary units. The latency time till the animal lift a paw as a reaction to the thermal stimulus was recorded for both the inflamed and non-inflamed hind paws. The second stimulus was mechanical (tactile) and assessed using a Dynamic Plantar Sesthesiomether (Ugo Basile Model 73400-002). […] Finally, the impact on paw edema was assessed. Paw thickness is measured using a dial thickness gauge (Spring-dial, constant low pressure gauge, Mitutoyo, TG/L-1, 0.00 mm) and paw volume is measured using a plethysmometer (model #7150, Ugo Basile, Italy). At the end of the study, animals were euthanized with an i.p. injection of 100 mg/kg pentobarbitone.
The results are measured as the differences between the two hind paws at time 0 and 3 hours both as ALT, for the latency time in the thermal part of the study, and as ΔForce, for the mechanical part of the study. The paw volume is expressed as percent from vehicle treated animals. Results are expressed as mean±SEM for each treatment group and the differences among those groups are analyzed by analysis of variance (ANOVA) followed by post-hoc Tukey's test. A value of p<0.05 was considered to be statistically significant and is indicated on the figure by an asterisk over the relevant treatment group.

[4] = test system: iNOS; experiment: iNOS gene expression in LPS activated RAW 264.7 macrophages (real-time RT-PCR); assay type: cell-based, mouse
Protocol: (§1) RAW 264.7 macrophages, a mouse cell line (ATCC # TIB 71), were grown in Dulbecco's modified Eagle's medium (DMEM) with 4 mM L-glutamine adjusted to contain 1.5 g/L sodium bicarbonate, 4.5 g/L glucose, and 10% heat inactivated fetal bovine serum. Cells were grown in tissue culture flasks and seeded at appropriate density into 6 wells tissue culture plates. Four million Raw cells in half a milliliter were stimulated with 1 μg/ml Lipopolysaccharide E. coli 055:B5 (DIFCO Laboratories). The mouse macrophages were pre-treated for one hour with controls or 10 μM of test compounds, and later on activated with LPS. RNA samples were extracted from the cells 3 hrs after activation and iNOS gene expression levels were analyzed by real-time RT-PCR as previously described. For western blot analysis, compounds were tested at 1, 5 and 10 μM and cells were harvested 24 hrs after LPS stimulation. Supernatant were collected and NO secretion was analyzed using ELISA. Cells were washed 3 times with cold PBS, scrapped and lyzed in 100 μl cell lysis buffer containing 20 mM HEPES, pH 7.6, 150 mM NaCl, 1.5 mM MgCl2, 0.2 mM EDTA, 1% Triton X-100, 10% glycerol, 1 mM DTT, 1 mM PMSF, 10 μg/ml aprotinin. 5 µg/ml leupeptin, 10 mM p-nitrophenyl phosphate, 100 mM β-glycerophosphate, 1 mM sodium fluoride, and 0.1 μM sodium orthovanadate. Cells were lyzed on ice for 10 minutes before further processing.
The results of this experiment are expressed as fold activation of iNOS over non-activated macrophages, after normalization to cyclophilin A expression. Compound 18A inhibits 63% of iNOS gene expression, and compounds 18B, 18E and 18F inhibit 55%, 25% and 100% respectively. […] This surprising observation strengthen the fact that compounds of the invention, though chemically related, have distinct and unexpected properties.

[5] = test system: iNOS; experiment: iNOS protein expression in activated macrophages (western blot); assay type: cell-based, mouse; conditions: 1, 5 and 10 μM, 24 hrs after LPS stimulation
Protocol: as §1, with “Cells were washed 3 times with cold PBS, scrapped and lyzed in 100 μl cell lysis buffer containing 20 mM HEPES, pH 7.6, 150 mM NaCl, 1.5 mM MgCl2, 0.2 mM EDTA, 1% Triton X-100, 10% glycerol, 1 mM DTT, 1 mM PMSF, 10 μg/ml aprotinin. 5 µg/ml leupeptin, 10 mM p-nitrophenyl phosphate, 100 mM β-glycerophosphate, 1 mM sodium fluoride, and 0.1 μM sodium orthovanadate. Cells were lyzed on ice for 10 minutes before further processing.” left out
To assess correlation between gene expression and protein expression, protein extracts were prepared from the various treated activated macrophages. […] Primary antibodies against cyclophilin A were used as control (Upstate, Cat# 07-313), and the amount of iNOS was assessed using NOS2 (C11) Santa Cruz antibodies (Cat# SC-7271) were hybridized for 2 hours at room temperature. […]

[6] = target: CB1 receptor (Homo sapiens, UniProt P21554); experiment: CB1 binding assay
Sequence of CB1 receptor (P21554 whole entry): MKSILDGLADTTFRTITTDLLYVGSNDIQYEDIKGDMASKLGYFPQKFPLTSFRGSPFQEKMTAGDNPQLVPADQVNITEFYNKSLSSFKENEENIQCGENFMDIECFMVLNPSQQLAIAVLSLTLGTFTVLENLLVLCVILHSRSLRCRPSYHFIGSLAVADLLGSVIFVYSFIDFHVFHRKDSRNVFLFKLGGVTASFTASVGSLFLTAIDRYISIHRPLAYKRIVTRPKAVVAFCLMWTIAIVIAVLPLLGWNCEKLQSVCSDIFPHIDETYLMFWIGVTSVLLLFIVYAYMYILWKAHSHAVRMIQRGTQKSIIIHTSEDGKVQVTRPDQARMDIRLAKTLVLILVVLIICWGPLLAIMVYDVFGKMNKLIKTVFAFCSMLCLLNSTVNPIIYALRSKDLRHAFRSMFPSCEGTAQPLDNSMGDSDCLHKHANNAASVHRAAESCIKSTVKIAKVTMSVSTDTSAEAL

Sequence of CB2 receptor (P34972 whole entry): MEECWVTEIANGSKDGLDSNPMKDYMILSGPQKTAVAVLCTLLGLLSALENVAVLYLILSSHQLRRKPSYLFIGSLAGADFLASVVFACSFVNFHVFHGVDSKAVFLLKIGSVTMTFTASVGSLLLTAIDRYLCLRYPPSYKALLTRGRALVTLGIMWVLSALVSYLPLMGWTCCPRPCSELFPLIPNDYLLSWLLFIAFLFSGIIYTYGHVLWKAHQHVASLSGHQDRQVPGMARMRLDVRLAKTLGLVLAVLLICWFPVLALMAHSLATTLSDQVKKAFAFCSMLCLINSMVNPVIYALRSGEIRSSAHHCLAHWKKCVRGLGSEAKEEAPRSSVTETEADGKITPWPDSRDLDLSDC

SMILES: CCCCCCC(C)(C)c1cc(O)c([C@H]2CC(=O)C3CC2C3(C)C)c(OC(=O)/C=C/C(=O)O)c1 (single isomer, unassigned; (-)) [Compound 18F, (−)-4-{4-[1,1-Dimethylheptyl]-2-fumarate-6-hydroxy-phenyl}-6,6-dimethyl-bicyclo[3.1.1]heptan-2-one]
- relapse postponed as compared to controls ([1]; 40 mg/kg p.o. daily for 25 days): 5 to 7 days
- clinical score of the second peak ([1]; 40 mg/kg p.o. daily for 25 days from day 25, controls 0.7 and 0.8): 0.5
- side effects ([1]; 40 mg/kg p.o. for 25 days): No side effects were observed
- AUC of clinical score ([1]; 40 mg/kg p.o., day 35 to day 58, control 8.1): 2.1
- reduction in AUC as compared to control ([1]; 40 mg/kg p.o., day 35 to day 58, p=0.0025): 74%
- average reduction of clinical score ([1]; 40 mg/kg p.o., day 38 till end of study): 28%
- IC50 [2]: 9 nM
- decrease in paw volume ([3]; 10 mg/kg p.o.): 6%
- percent reduction of delta force, tactile stimulus ([3]; 10 mg/kg p.o.): 23%
- reduction of ΔLT, thermal stimulus ([3]; 10 mg/kg p.o.): no reduction
- ΔLT between hind paws, thermal stimulus ([3]; 10 mg/kg p.o., vehicle about 7.5): 7.5 s
- decrease in paw volume ([3]; 20 mg/kg p.o.): 18%
- paw volume, percent of vehicle ([3]; 20 mg/kg p.o.): 82%
- reduction of ΔLT, thermal stimulus ([3]; 20 mg/kg p.o.): 69%
- ΔLT between hind paws, thermal stimulus ([3]; 20 mg/kg p.o.): 2.3 s
- reduction of delta force between paws, tactile stimulus ([3]; 20 mg/kg p.o.): 18 g
- reduction of ΔLT, thermal stimulus ([3]; 30 mg/kg p.o.): 88%
- ΔLT between hind paws, thermal stimulus ([3]; 30 mg/kg p.o.): 0.9 s
- decrease in paw volume ([3]; 30 mg/kg p.o., significant): 52%
- reduction of delta force between paws, tactile stimulus ([3]; 30 mg/kg p.o.): 19 g
- percent reduction of delta force, tactile stimulus ([3]; 20 and 30 mg/kg p.o.): about 60%
- reduction in Δforce, mechanical stimulus ([3]; single dose of 20 mg/kg p.o.): 58%
- effect of CB1 or CB2 antagonists on iNOS inhibiting activity ([4]; 5 μM of SR-141716 and SR-144528): only blocked by CB2 antagonists
- inhibition of iNOS gene expression ([4]; 10 μM, 1 h pre-treatment, 3 hrs after LPS activation): 100%
- iNOS protein band (western blot) [5]: clear dose dependent disappearance of iNOS protein band
- IC50 [6]: 334 nM

Reference: patent publication US20090068143A1, “ORALLY EFFECTIVE C[…]” (priority 2005, published 2009)
